{"source": "paper PMC4393105", "about": "“tRNA^Glu Increases the Affinity of Glutamyl-tRNA Synthetase for Its Inhibitor Glutamyl-Sulfamoyl-Adenosine, an Analogue of the Aminoacylation Reaction Intermediate Glutamyl-AMP: Mechanistic and Evolutionary Implications” (PLoS ONE, 2015)", "biological_target": "T1, E. coli GluRS (Escherichia coli, UniProt P04805)", "T1 construct": "His tag (histidine tag) (C); made in house", "T1 sequence (P04805 whole entry)": "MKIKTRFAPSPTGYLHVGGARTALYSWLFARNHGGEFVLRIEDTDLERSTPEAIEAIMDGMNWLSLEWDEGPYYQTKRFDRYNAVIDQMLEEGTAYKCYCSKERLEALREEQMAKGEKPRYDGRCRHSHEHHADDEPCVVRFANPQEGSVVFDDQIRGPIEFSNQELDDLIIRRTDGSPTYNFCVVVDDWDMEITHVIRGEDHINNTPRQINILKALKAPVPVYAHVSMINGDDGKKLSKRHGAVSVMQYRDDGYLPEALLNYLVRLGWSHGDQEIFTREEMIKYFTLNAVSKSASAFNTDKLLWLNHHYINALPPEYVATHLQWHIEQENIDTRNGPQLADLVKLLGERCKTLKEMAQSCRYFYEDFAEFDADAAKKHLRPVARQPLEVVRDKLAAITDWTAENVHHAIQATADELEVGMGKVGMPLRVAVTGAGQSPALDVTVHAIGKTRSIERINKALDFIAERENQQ", "assay": "Isothermal titration microcalorimetry of Glu-AMS binding to GluRS in the absence of tRNA", "conditions": "no tRNA; for Kd: Kd (dissociation constant), Kd = 1/Kb", "protocol": "Overproduction and purification of E. coli GluRS were performed as previously described with the following modifications. A C-terminal histidine-tagged GluRS was used instead of the N-terminal tagged one. The overproduction was induced overnight at 30°C with 1 mM IPTG.\nThe GluRS solution with or without tRNA was dialyzed overnight in a D-tube dialyzer (Novagen) against 2 L of dialysis buffer (50 mM HEPES-KOH, pH 7.2, 10 mM MgCl2) at 4°C with light stirring. The next morning, the dialyzed solution was recovered and the volume adjusted by adding dialysis buffer to obtain the desired concentration (typically 9 μM GluRS and 11 μM tRNA^Glu). This solution was kept on ice until use. Glu-AMS was diluted in the dialysis buffer to obtain a final concentration of 90 μM. All buffers and solutions were degased with stirring under vacuum. The microcalorimetry experiments were carried out in a VP-ITC 100 microcalorimeter (MicroCal, GE Healthcare) using deionized water as an internal reference for all assays. VPViewer ITC 2000 and Origin v 5.0 softwares (Microcal Software, Inc) were used for data collection and analysis, respectively.\nTo measure the thermodynamic parameters of the interaction between Glu-AMS and GluRS, in the presence and in the absence of tRNA, a solution containing 9 μM GluRS with or without a stoichiometric excess of tRNA^Glu or S. cerevisiae tRNA^Phe (Table 1) was placed in the sample cell of the microcalorimeter. The following conditions were used for all tests: reference power was set at 12 μcal/s and stirring at 300 rpm, the “high” feedback mode and “No check Temp”, “Fast Equil” and “Auto” ITC equilibration options were selected. The 90 μM Glu-AMS solution was loaded in the injection syringe. After a first injection of 1 μL over 2 s, a series of 39 injections (7.4 μL over 14.8 s) with 240 s between injections was performed. Injections of Glu-AMS in GluRS alone, GluRS•tRNA^Glu or GluRS•tRNA^Phe, were performed at 30°C (303 K), and done in duplicate. Injections of Glu-AMS in GluRS were also performed at 20°C and 37°C (293 and 310 K): 14 injections (20 μL over 40 s) followed the first injection of 1 μL. Each temperature was tested in duplicate, and in triplicate at 37°C.\nThe following nomenclature was used to describe the interaction at equilibrium between Glu-AMS and either GluRS or a GluRS•tRNA complex: GluRS•Glu-AMS↔GluRS+[…] Kd=[GluRS]×[Glu-AMS]/[GluRS•Glu-AMS] 1/Kd=Kb (binding constant, sometimes referred to as Ka).", "key": {"[1]": {"conditions": "single ITC run, 293 K, [ligand] 90 µM, [GluRS] 4.15 µM"}, "[2]": {"conditions": "single ITC run, 293 K, [ligand] 90 µM, [GluRS] 4.35 µM"}, "[3]": {"conditions": "single ITC run, 303 K, [ligand] 90 µM, [GluRS] 4.143 µM"}, "[4]": {"conditions": "single ITC run, 303 K, [ligand] 90 µM, [GluRS] 5.355 µM"}, "[5]": {"conditions": "single ITC run, 310 K, [ligand] 90 µM, [GluRS] 3.169 µM"}, "[6]": {"conditions": "single ITC run, 310 K, [ligand] 90 µM, [GluRS] 3.931 µM"}, "[7]": {"conditions": "single ITC run, 310 K, [ligand] 90 µM, [GluRS] 4.015 µM"}, "[8]": {"conditions": "30°C (303 K), weighted mean of ITC runs"}}, "note": "Values joined by “and” are separate entries in the source; they are usually repeats but may differ in a detail not shown here. Equal values may be shown once."}
{"smiles": "Nc1ncnc2c1ncn2[C@@H]1O[C@H](COS(=O)(=O)NC(=O)[C@@H](N)CCC(=O)O)[C@@H](O)[C@H]1O", "note": "[Glu-AMS, 5’-O-[N-(L-glutamyl)sulfamoyl]adenosine]", "values": [{"measurement": "Kd", "setting": "[1]", "value": "545 ± 162", "unit": "nM"}, {"measurement": "Kd", "setting": "[2]", "value": "547 ± 150", "unit": "nM"}, {"measurement": "Kd", "setting": "[3]", "value": "281 ± 39", "unit": "nM"}, {"measurement": "Kd", "setting": "[4]", "value": "307 ± 28", "unit": "nM"}, {"measurement": "Kd", "setting": "[5]", "value": "256 ± 20", "unit": "nM"}, {"measurement": "Kd", "setting": "[6]", "value": "318 ± 82", "unit": "nM"}, {"measurement": "Kd", "setting": "[7]", "value": "231 ± 37", "unit": "nM"}, {"measurement": "-TΔSb", "setting": "[8]", "value": "-3.996 ± 0.05", "unit": "kcal/mol"}, {"measurement": "n (stoichiometry coefficient)", "setting": "[8]", "value": "0.9998 ± 0.0094"}, {"measurement": "ΔHb (reaction enthalpy)", "setting": "[8]", "value": "-5.041 ± 0.063", "unit": "kcal/mol"}, {"measurement": "ΔSb (reaction entropy)", "setting": "[8]", "value": "13.2 cal/mol·K and 13.19 ± 0.16 cal/mol·K"}, {"measurement": "-TΔSb", "setting": "293 K, mean of ITC runs", "value": "-4.479 ± 0.218", "unit": "kcal/mol"}, {"measurement": "n (stoichiometry coefficient)", "setting": "293 K, mean of ITC runs", "value": "1.0097 ± 0.0369"}, {"measurement": "ΔHb (reaction enthalpy)", "setting": "293 K, mean of ITC runs", "value": "-3.929 ± 0.191", "unit": "kcal/mol"}, {"measurement": "ΔSb (reaction entropy)", "setting": "293 K, mean of ITC runs", "value": "15.29 ± 0.74", "unit": "cal/mol·K"}, {"measurement": "ΔGb (reaction energy)", "setting": "293 K, mean of ITC runs, ΔGb = -RT Ln Kb", "value": "-8.396 ± 0.0016", "unit": "kcal/mol"}, {"measurement": "-TΔSb", "setting": "310 K, mean of ITC runs", "value": "-2.835 ± 0.036", "unit": "kcal/mol"}, {"measurement": "n (stoichiometry coefficient)", "setting": "310 K, mean of ITC runs", "value": "1.0016 ± 0.0095"}, {"measurement": "ΔHb (reaction enthalpy)", "setting": "310 K, mean of ITC runs", "value": "-6.395 ± 0.081", "unit": "kcal/mol"}, {"measurement": "ΔSb (reaction entropy)", "setting": "310 K, mean of ITC runs", "value": "9.146 ± 0.117", "unit": "cal/mol·K"}, {"measurement": "ΔGb (reaction energy)", "setting": "310 K, mean of ITC runs, ΔGb = -RT Ln Kb", "value": "-9.326 ± 0.1", "unit": "kcal/mol"}, {"measurement": "change in heat capacity (ΔCp)", "setting": "from ΔHb at 293, 303 and 310 K", "value": "-143 ± 23", "unit": "cal/mol·K"}, {"measurement": "-TΔSb", "setting": "[1]", "value": "-4495 ± 320"}, {"measurement": "n (stoichiometry coefficient)", "setting": "[1]", "value": "1.014 ± 0.054"}, {"measurement": "ΔGb (reaction energy)", "setting": "[1]", "value": -8.397, "unit": "kcal/mol"}, {"measurement": "ΔHb (reaction enthalpy)", "setting": "[1]", "value": "-3.909 ± 0.279", "unit": "kcal/mol"}, {"measurement": "ΔSb (reaction entropy)", "setting": "[1]", "value": "15.34 ± 1.09", "unit": "cal/mol·K"}, {"measurement": "-TΔSb", "setting": "[2]", "value": "-4465 ± 297"}, {"measurement": "n (stoichiometry coefficient)", "setting": "[2]", "value": "1.006 ± 0.050"}, {"measurement": "ΔGb (reaction energy)", "setting": "[2]", "value": -8.395, "unit": "kcal/mol"}, {"measurement": "ΔHb (reaction enthalpy)", "setting": "[2]", "value": "-3.946 ± 0.263", "unit": "kcal/mol"}, {"measurement": "ΔSb (reaction entropy)", "setting": "[2]", "value": "15.24 ± 1.01", "unit": "cal/mol·K"}, {"measurement": "-TΔSb", "setting": "[3]", "value": "-3936 ± 97"}, {"measurement": "n (stoichiometry coefficient)", "setting": "[3]", "value": "0.9963 ± 0.0184"}, {"measurement": "ΔGb (reaction energy)", "setting": "[3]", "value": -9.083, "unit": "kcal/mol"}, {"measurement": "ΔHb (reaction enthalpy)", "setting": "[3]", "value": "-5.142 ± 0.127", "unit": "kcal/mol"}, {"measurement": "ΔSb (reaction entropy)", "setting": "[3]", "value": "12.99 ± 0.32", "unit": "cal/mol·K"}, {"measurement": "-TΔSb", "setting": "[4]", "value": "-4018 ± 58"}, {"measurement": "n (stoichiometry coefficient)", "setting": "[4]", "value": "1.001 ± 0.011"}, {"measurement": "ΔGb (reaction energy)", "setting": "[4]", "value": -9.029, "unit": "kcal/mol"}, {"measurement": "ΔHb (reaction enthalpy)", "setting": "[4]", "value": "-5.007 ± 0.073", "unit": "kcal/mol"}, {"measurement": "ΔSb (reaction entropy)", "setting": "[4]", "value": "13.26 ± 0.19", "unit": "cal/mol·K"}, {"measurement": "-TΔSb", "setting": "[5]", "value": "-2680 ± 41"}, {"measurement": "n (stoichiometry coefficient)", "setting": "[5]", "value": "0.9997 ± 0.0114"}, {"measurement": "ΔGb (reaction energy)", "setting": "[5]", "value": -9.349, "unit": "kcal/mol"}, {"measurement": "ΔHb (reaction enthalpy)", "setting": "[5]", "value": "-6.654 ± 0.102", "unit": "kcal/mol"}, {"measurement": "ΔSb (reaction entropy)", "setting": "[5]", "value": "8.646 ± 0.132", "unit": "cal/mol·K"}, {"measurement": "-TΔSb", "setting": "[6]", "value": "-2978 ± 147"}, {"measurement": "n (stoichiometry coefficient)", "setting": "[6]", "value": "1.005 ± 0.037"}, {"measurement": "ΔGb (reaction energy)", "setting": "[6]", "value": -9.217, "unit": "kcal/mol"}, {"measurement": "ΔHb (reaction enthalpy)", "setting": "[6]", "value": "-6.225 ± 0.307", "unit": "kcal/mol"}, {"measurement": "ΔSb (reaction entropy)", "setting": "[6]", "value": "9.607 ± 0.473", "unit": "cal/mol·K"}, {"measurement": "-TΔSb", "setting": "[7]", "value": "-3531 ± 90"}, {"measurement": "n (stoichiometry coefficient)", "setting": "[7]", "value": "1.006 ± 0.019"}, {"measurement": "ΔGb (reaction energy)", "setting": "[7]", "value": -9.413, "unit": "kcal/mol"}, {"measurement": "ΔHb (reaction enthalpy)", "setting": "[7]", "value": "-5.873 ± 0.15", "unit": "kcal/mol"}, {"measurement": "ΔSb (reaction entropy)", "setting": "[7]", "value": "11.39 ± 0.29", "unit": "cal/mol·K"}]}
